# Columns and labels:
# Solubility = type: physicochemical
# blowfly larvae = assay: Insecticidal activity; type: in vivo; conditions: read-out: active at levels as low as
# From the text: (§1) The A80190 compounds are also useful as insecticides and acaricides. For example, A80190 is active against the following insects as levels as low as the level indicated in parenthesis: mosquito larvae (<50 ppm), blowfly larvae (35 ppm), adult housefly (35 ppm), and Mexican bean beetle and southern armyworm (<100 ppm). A80190 is also active against mites such as two-spotted spider mite when applied at a rate as low as 25 ppm.
# southern armyworm = assay: Insecticidal activity; type: in vivo; conditions: Spodoptera eridania; read-out: active at levels as low as
# From the text: as §1
# adult housefly = assay: Insecticidal activity; type: in vivo; conditions: Musca domestica; read-out: active at levels as low as
# From the text: as §1
# mosquito larvae = assay: Insecticidal activity; type: in vivo; conditions: read-out: active at levels as low as
# From the text: as §1
# Mexican bean beetle = assay: Insecticidal activity; type: in vivo; conditions: Epilachna varivestis; read-out: active at levels as low as
# From the text: as §1
# Eimeria tenella = assay: In vitro tissue culture anticoccidial screen; type: cell-based; conditions: Concentration 5 µg/ml
# From the text: Anticoccidial activity is an important property of the A80190 compounds. Table VIII summarizes the results of an in vitro tissue culture screen of A-80190 compounds vs. Eimeria tenella.
# crabgrass = assay: Herbicidal activity; type: in vivo; conditions: 2 lb/acre (200 gpa), either pre-emergence or post-emergence
# From the text: (§2) In another aspect, the A80190 compounds have herbicidal activity. For example, A80190 is active against crabgrass, mustard and pigweed at 2 lb/acre (200 gpa) either pre-emergence or post-emergence.
# pigweed = assay: Herbicidal activity; type: in vivo; conditions: 2 lb/acre (200 gpa), either pre-emergence or post-emergence
# From the text: as §2
# mustard = assay: Herbicidal activity; type: in vivo; conditions: 2 lb/acre (200 gpa), either pre-emergence or post-emergence
# From the text: as §2
# two-spotted spider mite = assay: Acaricidal activity; type: in vivo; conditions: Tetranychus urticae; read-out: active when applied at a rate as low as
# From the text: as §1
# Treponema hyodysenteriae = assay: Growth inhibition, swine dysentery agent; type: cell-based; conditions: Brachyspira hyodysenteriae; read-out: inhibits the growth at levels as low as
# From the text: In another aspect the A80190 compounds are useful in the treatment of swine dysentery. A80190 inhibits the growth of Treponema hyodysenteriae, a causative agent of swine dysentery, at levels as low as 0.39 mcg/ml. A preferred method of administration to swine is by incorporation of an appropriate amount of an A80190 compound into the feed ration or drinking water. An appropriate amount will relate to whether the treatment is to prevent or to cure infection. Usually, a lower concentration of active compound is needed to prevent infection than is required for to eliminate infection in animals already afflicted. In general, amounts in the range of from about 20 to about 100 grams of A80190 compound per ton of feed are effective to prevent infection. Amounts in the range of from about 100 to about 500 g of A80190 compound per ton of feed are recommended for treating swine suffering from dysentery. These amounts provide from about 1 to about 5 mg/kg of body weight per day (prophylactic treatment) or from about 5 to about 25 mg/kg of body weight per day (treatment of infected animal). When added to the drinking water, amounts of from about 0.04 to about 0.2 g (prophylactic) or from about 0.2 to about 1 g (therapeutic) of A80190 compound per gallon of water are recommended.
# [1] = Ion-transport (ionophore) test
structure (smiles),measurement,setting,value
CC[C@@H](O)[C@]1(C)C[C@H](C)[C@@](O)([C@H]2C[C@H](C)[C@H]([C@]3(C)C[C@@H](O[C@H]4CC[C@H](OC)[C@@H](C)O4)[C@H]([C@@H]4CC[C@@]5(O[C@H]([C@@H](C)[C@@H](OC)[C@H](C)C(=O)O)[C@H](C)[C@@H](OC)[C@H]5C)O4)O3)O2)O1 [Example A80190],Solubility,"Solubility; lower alcohols such as methanol, ketones such as acetone, esters such as ethyl acetate, halogenated hydrocarbons such as chloroform, diethyl ether, benzene, toluene, warm hexane",soluble
same,Solubility,Solubility; water,Insoluble
same,minimal effective concentration,blowfly larvae,35 µg/mL
same,minimal effective concentration,southern armyworm,< 100 µg/mL
same,minimal effective concentration,adult housefly,35 µg/mL
same,minimal effective concentration,mosquito larvae,< 50 µg/mL
same,minimal effective concentration,Mexican bean beetle,< 100 µg/mL
same,Activity vs. Eimeria tenella In Vitro,Eimeria tenella,C^a
same,herbicidal activity,crabgrass,active
same,herbicidal activity,pigweed,active
same,herbicidal activity,mustard,active
same,minimal effective concentration,two-spotted spider mite,25 µg/mL
same,MIC,Treponema hyodysenteriae,0.39 mg/L
same,"ionophorous effect, comparison of cations",[1]; 0.2 µg/ml concentration,even greater ionophorous effect with Cs⁺ than with Na⁺
same,ionophorous activity,[1]; 0.5 µg/ml concentration,showed ionophorous activity
same,"ionophorous activity, comparison of cations",[1]; 0.5 µg/ml concentration,"its activity with Na⁺, K⁺ and Rb⁺ was better than that with Cs⁺ or Li⁺"

# From EP0184291B1, “Polyether antibiotic A80190” (ELI LILLY AND COMPANY, priority 1984, dated 1986)
